From patent US5789602A, “Physiologically active substances PF1092A, PF1092B and PF1092C, process for the production thereof, and contraceptives and anticancer drugs containing the same as active ingredients” (Meiji Seika Kaisha, Ltd., priority 1995, dated 1998)
“Also recorded” adds a separate entry of the source.

Columns and labels:
progesterone receptor = biological target: T1, progesterone receptor (Sus scrofa, UniProt D0EWS6); experiment: progesterone receptor binding activity (3H-progesterone, hog uterus cytosol); design: species or system hogs; conditions: 1 h, 30 μM test substance, 4° C., 60 minutes, read-out: inhibition of the binding of 3H-progesterone to the progesterone receptor (inhibition ratio)
T1 construct: from tissue; host or cells: hog uterus, cytosol (100,000×g supernatant)
T1 sequence (D0EWS6 1-934): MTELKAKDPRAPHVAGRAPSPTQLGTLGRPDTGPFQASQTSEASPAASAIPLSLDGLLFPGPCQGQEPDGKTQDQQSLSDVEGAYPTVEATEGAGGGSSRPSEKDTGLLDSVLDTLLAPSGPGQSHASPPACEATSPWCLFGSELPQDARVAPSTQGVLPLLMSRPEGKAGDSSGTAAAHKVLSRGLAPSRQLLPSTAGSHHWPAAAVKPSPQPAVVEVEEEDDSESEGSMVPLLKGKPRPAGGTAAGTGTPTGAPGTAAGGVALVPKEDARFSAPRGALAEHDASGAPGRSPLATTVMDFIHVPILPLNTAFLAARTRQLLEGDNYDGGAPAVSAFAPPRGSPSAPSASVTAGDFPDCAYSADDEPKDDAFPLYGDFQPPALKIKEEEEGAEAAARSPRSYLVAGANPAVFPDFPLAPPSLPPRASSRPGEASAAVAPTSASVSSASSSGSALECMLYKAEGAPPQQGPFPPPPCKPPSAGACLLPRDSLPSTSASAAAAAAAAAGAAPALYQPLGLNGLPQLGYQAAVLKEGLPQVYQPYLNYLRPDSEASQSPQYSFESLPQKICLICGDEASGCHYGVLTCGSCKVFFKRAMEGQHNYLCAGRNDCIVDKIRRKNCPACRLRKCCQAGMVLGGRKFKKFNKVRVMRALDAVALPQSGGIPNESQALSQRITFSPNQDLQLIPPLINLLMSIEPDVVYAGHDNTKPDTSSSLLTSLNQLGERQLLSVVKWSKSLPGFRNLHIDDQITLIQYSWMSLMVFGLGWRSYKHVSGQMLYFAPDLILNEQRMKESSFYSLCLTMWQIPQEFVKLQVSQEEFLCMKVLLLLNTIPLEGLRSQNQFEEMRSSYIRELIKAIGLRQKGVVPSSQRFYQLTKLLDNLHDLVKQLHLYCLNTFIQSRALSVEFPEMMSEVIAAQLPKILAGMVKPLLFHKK
Experimental: The progesterone receptor binding activity of substance PF1092A, substance PF1092B and substance PF1092C of the present invention was measured in the following manner in accordance with the method of H. Kondo et al. (J. Antibiotics, vol. 43, pp. 1533-1542, 1990). That is, uteri taken from hogs in 5 mM phosphate buffer were disrupted using Polytron homogenizer, and the resulting solution was subjected to centrifugation (100,000×g, 30 minutes) to separate the supernatant fluid which was used as the cytosol containing progesterone receptor.
In the assay of progesterone receptor binding activity, 40 μl of a solution of ^3 H-progesterone as a ligand of the receptor (3.84 TBq/mmol, 18.5 kBq/ml), 50 μl of the just obtained cytosol (2-3 mg protein/ml), 30 μM of substance PF1092A, substance PF1092B and substance PF1092C and 30 μM of medroxyprogesterone acetate (MPA) were put into a test tube and incubated at 4° C. for 60 minutes to effect the reaction and then mixed with 100 μl of 0.5% activated carbon solution. After 10 minutes of standing, this was subjected to centrifugation (2,000×g, 10 minutes), and radioactivity of the thus obtained supernatant fluid was measured using a liquid scintillation counter. Inhibition ratio was calculated based on the following formula in which radioactivity with no addition of the test drug was defined as the amount of total binding to the cytosol and radioactivity with the addition of MPA was defined as the amount of non-specific binding. [formula]

[1] = Solubility (physico-chemical properties); assay type: physicochemical; conditions: qualitative, in organic solvents and in water

SMILES | inhibition at 30 µM (progesterone receptor) [%] | Solubility [1]
CC(=O)OC1C(O)C=C2C=C3OC(=O)C(C)=C3CC2(C)C1C (stereo not drawn) [PF1092A] | ≥ 90 | soluble in chloroform, acetone, ethyl acetate, methanol and dimethyl sulfoxide, and insoluble in water and hexane
CC(=O)OC1C=C2C=C3OC(=O)C(C)=C3CC2(C)C(C)C1O (stereo not drawn) [PF1092B] | ≥ 90 | soluble in chloroform, acetone, ethyl acetate, methanol and dimethyl sulfoxide, and insoluble in water and hexane
CC1=C2CC3(C)C(=CC(O)C(O)C3C)C=C2OC1=O (stereo not drawn) [PF1092C] | ~70 | soluble in chloroform, acetone, ethyl acetate, methanol and dimethyl sulf oxide, and insoluble in water and hexane; also recorded: soluble in chloroform, acetone, ethyl acetate, methanol and dimethyl sulfoxide, and insoluble in water and hexane
